Columns and labels:
NCI-H295R [1] = experiment: IC50 (antiproliferative, ATP content); settings: 48 h
NCI-H295R [2] = experiment: maximal response (efficacy) relative to DMSO (0%) and doxorubicin (-100%); higher = less growth inhibition; settings: 48 h

Row | IC50 (NCI-H295R [1]) [µM] | Structure (SMILES) | maximal response (NCI-H295R [2]) [%]
1 | 11.9 | NC(C(C)=C2)=CC=C2/C(C1=CC=C(N)C=C1)=C3/C=CC(C=C3)=N.Cl | -87.4
2 | 0.376 | Cc1c2oc3c(C)ccc(C(=O)N[C@@H]4C(=O)N[C@H](C(C)C)C(=O)N5CCC[C@H]5C(=O)N(C)CC(=O)N(C)[C@@H](C(C)C)C(=O)O[C@H]4C)c3nc-2c(C(=O)N[C@@H]2C(=O)N[C@H](C(C)C)C(=O)N3CCC[C@H]3C(=O)N(C)CC(=O)N(C)[C@@H](C(C)C)C(=O)O[C@H]2C)c(N)c1=O | -113
3 | 8.41 | Nc1nc(N)c2nc(CNc3ccc(C(=O)N[C@@H](CCC(=O)O)C(=O)O)cc3)cnc2n1 | -79.1
4 | 21.1 | Cl.O=C1CSC2(CCN(CCCN3c4ccccc4Sc4ccc(Cl)cc43)CC2)N1 | -136
5 | 2.37 | S=c1[nH]cnc2[nH]cnc12 | -71.8
6 | 16.8 | O=C1OCCN1/N=C/c1ccc([N+](=O)[O-])o1 | -72.7
7 | 4.73 | C[n+]1cc2c3c(ccc2c2ccc4cc5c(cc4c21)OCO5)OCO3 | -119
8 | 21.1 | CCCCCCCCN[C@H](C)C(O)c1ccc(SC(C)C)cc1 (stereo partly specified) | -137
9 | 11.9 | OC[C@@]([C@@](C[C@@H](C4=C(C(C(C2=C(C=CC=C23)OC)=O)=C(C(O)=C4C5)C3=O)O)O[C@H](O1)C[C@@H]([C@@H]([C@@H]1C)O)N)5O)=O.Cl | -102
10 | 10.6 | COc1cc(-c2ccc(-[n+]3nc(-c4ccccc4)nn3-c3ccc([N+](=O)[O-])cc3)c(OC)c2)ccc1-[n+]1nc(-c2ccccc2)nn1-c1ccc([N+](=O)[O-])cc1.[Cl-].[Cl-] | -132
11 | 8.41 | COCC(=O)Nc1cc(Sc2ccccc2)ccc1N=C(NC(=O)OC)NC(=O)OC | -64.1
12 | 18.8 | C=C1/C(=C\C=C2/CCC[C@]3(C)[C@@H]([C@H](C)CCCC(C)(C)O)CC[C@@H]23)C[C@@H](O)C[C@@H]1O | -140
13 | 2.37 | COc1cc(NCCCC(C)N)c2ncccc2c1 (stereo unspecified) | -124
14 | 0.211 | COC(=O)C[C@](O)(CCCC(C)(C)O)C(=O)O[C@@H]1C(OC)=C[C@]23CCCN2CCc2cc4c(cc2[C@H]13)OCO4 | -125
15 | 16.8 | CC[C@@]1(O)C(=O)OCc2c1cc1n(c2=O)Cc2cc3c([N+](=O)[O-])cccc3nc2-1 | -91.1
16 | 0.531 | O=C(Nc1ccc([N+](=O)[O-])cc1Cl)c1cc(Cl)ccc1O | -94.3

Row | IC50 (NCI-H295R [1]) [µM] | Structure (SMILES) | maximal response (NCI-H295R [2]) [%]
17 | 10.6 | C[C@@H](C)[C@H]1C3=C(C=C(F)C=C3)CC[C@@](OC(COC)=O)1CCN(C)CCCC4=NC2=C(N4)C=CC=C2.Cl.Cl | -126
18 | 11.9 | [Cl-].C/[N+](C)=C1\C=C/C(C=C1)=C(\c2ccc(cc2)N(C)C)c3ccc(cc3)N(C)C | -130
19 | 21.1 | CCCCCCCCCCCCOCCOCCOCCOCCOCCOCCOCCOCCOCCO | -147
20 | 15 | CC(=O)Oc1ccccc1C(=O)Nc1ncc([N+](=O)[O-])s1 | -70.8
21 | 0.335 | O=C\1OC/C(=C/1)[C@H]2CC[C@@]9(O)[C@]2(C)[C@H](O)C[C@H]3[C@H]9CC[C@@H]4C[C@H](CC[C@]34C)O[C@@H]8O[C@H](C)[C@@H](O[C@@H]7O[C@H](C)[C@@H](O[C@@H]6O[C@H](C)[C@@H](O[C@@H]5O[C@H](CO)[C@@H](O)[C@H](O)[C@H]5O)[C@@H](O)C6)[C@@H](O)C7)[C@@H](O)C8 | -110
22 | 8.41 | CC(C)CCC[C@@H](C)[C@H]1CC(=O)C2=C3CC[C@H]4C[C@@H](O)CC[C@]4(C)[C@H]3CC[C@@]21C | -65
23 | 7.18 | Cc1cc(/C=C/c2ccc3cc(N(C)C)ccc3[n+]2C)c(C)n1-c1ccccc1.Cc1cc(/C=C/c2ccc3cc(N(C)C)ccc3[n+]2C)c(C)n1-c1ccccc1.O=C([O-])c1cc2ccccc2c(Cc2c(O)c(C(=O)[O-])cc3ccccc23)c1O | -69.7
24 | 23.7 | CCCCCCCCCCCCCC[N+](C)(C)C.[Br-] | -160
25 | 16.8 | CCN(CC)CCCN(c1ccccc1)C1Cc2ccccc2C1.Cl | -138
26 | 15 | Oc1c(Cl)cc(Cl)c(Cl)c1Cc1c(O)c(Cl)cc(Cl)c1Cl | -121
27 | 18.8 | Cl.Nc1c2ccccc2nc2ccccc12.O | -131
28 | 26.6 | CN(C)C(=O)CCSC(SCCC(=O)[O-])c1cccc(/C=C/c2ccc3ccc(Cl)cc3n2)c1.[Na+] (stereo unspecified) | -77.8
29 | 16.8 | CC(C)(C)c1cc(O)ccc1O | -139
30 | 8.41 | CCCCCCCC/C=C\CCCCCCCC(=O)NCc1ccc(O)c(OC)c1 | -122
31 | 0.0841 | O=C\1OC/C(=C/1)[C@H]8CC[C@@]7(O)[C@]8(C)CC[C@H]2[C@H]7CC[C@@H]3C[C@H](CC[C@]23C)O[C@@H]6O[C@H](C)[C@@H](O[C@H]5C[C@H](O)[C@H](O[C@H]4C[C@H](O)[C@H](O)[C@@H](C)O4)[C@@H](C)O5)[C@@H](O)C6 | -109
32 | 15 | CCOc1nc2cccc(C(=O)O)c2n1Cc1ccc(-c2ccccc2-c2nnn[nH]2)cc1 | -145

Row | Structure (SMILES) | IC50 (NCI-H295R [1]) [µM] | maximal response (NCI-H295R [2]) [%]
33 | [C@@]42([C@@]([C@@H](/C/1=C/OC(\C=C\1)=O)CC2)(CC[C@@H]5[C@]\3(CC[C@@H](/C=C/3CC[C@@H]45)O[C@H]6[C@@H]([C@@H]([C@H]([C@@H](O6)C)O)O)O)C)C)O | 0.0128 | -111
34 | [K+].[K+].[O]=[Cr](=[O])([O-])[O][Cr](=[O])(=[O])[O-] | 11.9 | -166
35 | O=C(Nc1ccc(Br)cc1)c1cc(Br)cc(Br)c1O | 5.31 | -118
36 | [H][C@]1(CC3)[C@]([C@H]5C[C@@H]4[C@@](C=C6)=COC6=O)(O5)[C@]4(C)CC[C@]([C@]2(C)[C@@]3([H])C[C@@H](O)CC2)1[H] | 6.68 | -105
37 | C[C@@]12C(=O)OC(=O)[C@]1(C)C1CCC2O1 | 1.43 | -114
38 | CC[C@@H](C(=O)O)[C@@H]1O[C@@H]([C@@H](C)[C@H](O)[C@H](C)C(=O)[C@H](CC)[C@H]2O[C@]3(C=C[C@@H](O)[C@]4(CC[C@@](C)([C@H]5CC[C@](O)(CC)[C@H](C)O5)O4)O3)[C@H](C)C[C@@H]2C)[C@@H](C)C[C@@H]1C | 5.31 | -140
39 | CCN1/C(=C\C=C\c2ccc3ccccc3[n+]2CC)C=Cc2ccccc21.[I-] | 23.7 | -134
40 | Oc1cccc[c]1[Hg][Cl] | 2.66 | -130
41 | C[C@]12O[C@H](C[C@]1(O)CO)n1c3ccccc3c3c4c(c5c6ccccc6n2c5c31)CNC4=O | 18.8 | -150
42 | CC[C@]2(O)CC[C@H]3[C@@H]4CC\C1=C\CCC[C@@H]1[C@H]4CC[C@]23C | 16.8 | -60.8
43 | Clc1ccc(COC(Cn2ccnc2)c2ccc(Cl)cc2Cl)cc1.O=[N+]([O-])O (stereo unspecified) | 26.6 | -149
